What was measured:
[1] = tested on: Arbuscular mycorrhizal fungus Rhizophagus irregularis DAOM197198; assay: Hyphal branching of AM fungus cultured on gel media; format: cell-based; conditions: for hyphal branch numbers compared to the negative control: FIG. 2; for hyphal branch numbers compared to the negative control / activity for promoting hyphal branching (hyphal branch number per spore): Steel test; for hyphal branching activity compared with positive control GR24: GR24 at 100 nM, FIG. 1 and FIG. 2; for activity for promoting hyphal branching (hyphal branch number per spore): concentration range tested 1 to 100 nM, 7-10 days
Protocol: • Arbuscular mycorrhizal fungus Rhizophagus irregularis DAOM197198 (Premier Tech Biotechnologies)
The spores of the AM fungi were separated and cultured on gels according to the conventional procedures outlined below.
1. In a 50 mL centrifuge tube, Gastrografin aqueous solutions having different densities were gently layered in the order of 50% (10 mL), 32% (5 mL), 16% (5 mL), and 8% (5 mL), and finally 5 mL of a spore suspension of R. irregularis (hereinafter called the AM fungus) was loaded, and centrifugation was performed at 500 g for 10 minutes.
2. The spores separated in the density gradient from the above were collected on a cell strainer and washed with sterilized water 3 times.
3. The spores were suspended in sterilized water at 4000 spores/mL.
4. A 4 μL drop (about 8 spores) each of the spore suspension diluted to 2000 spores/mL was put in the center portion of the M medium (New Phytol. 108:211-218), which had been dispensed in a 24-well plate at 350 μL each.
5. After it was left for 5 minutes to allow excess moisture to evaporate, 200 μL each of 0.3% Phytagel (3 mM MgSO4) at a temperature of about 50° C. was gently poured over the spores. Three to four wells were prepared per treatment group.
6. They were cultured in the dark for 5 days at 25° C. to let the spores germinate in advance.
1. rac-GR24 (hereinafter denoted as GR24), a synthetic strigolactone known to have a hyphal branching activity for the AM fungi, was used as a positive control. From the GR24 stored in acetone, the solvent was removed in vacuo, and GR24 was resuspended in distilled water and sterilized with a 0.45 μm filter.
2. For the other test substances, dry solids were dissolved in distilled water and filter-sterilized as above.
3. 200 μL each of the test solutions was added dropwise onto the Phytagel media comprising the germinated spores obtained in (2) above. The AM fungi were treated using sterilized water as a negative (Mock) control and with GR24 at a final concentration of 100 nM as a positive control.
4. Culturing was performed in the dark for 7-10 days at 25° C.
5. Hyphal branching numbers were measured under a stereomicroscope.
The hyphae that extended and branched directly from the hyphal stem had complex structures and branched well irrespective of the treatment conditions, and therefore they were excluded from the measurements of hyphal branching numbers. […]

[2] = tested on: common broomrape (Orobanche minor) seeds; assay: Bioassay using common broomrape seeds (germination); format: cell-based; conditions: FIG. 5
Source text: The seeds of the genus Orobanche and genus Striga plants, which are root-parasitic weeds, have the property to germinate in response to strigolactones released from the roots of agricultural plants which serve as hosts. These root-parasitic weeds are causing serious damage to crop production worldwide. This poses a hindrance to the external application of strigolactone as an agent for promoting arbuscular mycorrhizal fungus colonization.
Effect of gentiopicroside (GPS) on the germination of common broomrape (Orobanche minor), a parasitic weed of the genus Orobanche, was investigated. Experiments were performed according to the following experimental procedures.
(1) Common broomrape seeds were placed in a nylon mesh that had been shaped into a pouch (2 cm×2 cm×2 cm) by a sealer, and the opening of the pouch was closed.
(2) The seeds, together with the pouch, were placed in a 1% sodium hypochlorite aqueous solution to sterilize the surface for 20 minutes, and then washed 3 times with sterilized water.
(3) The pouch containing the seeds was placed on a filter paper dampened with sterilized water, and allowed to absorb water for 10 days at 25° C. in the dark.
(4) 6 mm paper discs contained in a 96-well plate were moistened by adding 15 μL distilled water dropwise.
(5) A new paper disc was placed on the paper disc of (4) above, and 20 μL of the test solution was added dropwise. Distilled water was used as a negative control (Mock) and 1 μM strigolactone (GR24) as a positive control. For the solvent for GPS, methanol was chosen due to its volatility.
(6) For treating the common broomrape seeds with both GR24 and GPS, one reagent was first added dropwise, and after complete evaporation of the solvent, the other reagent was then added.
(7) After the discs were left for 5 minutes to remove the solvent by evaporation, the common broomrape seeds of (3) above, which had been transferred to distilled water, were added together with the water as 5 μL drops.
(8) After 5 days of culturing at 25° C. in the dark, the germination rates of the common broomrape were measured.

Rhizophagus clarus HR1 = assay: Hyphal branching of a different AM fungus (as in Example 1); format: cell-based; conditions: FIG. 6
Protocol: Essentially the same experiments as described in Example 1 were carried out, except that a different arbuscular mycorrhizal fungus, Rhizophagus clarus HR1, was used. […] The compositions of the present disclosure can increase hyphal branching of diverse arbuscular mycorrhizal fungi included in the order Glomerales besides those exemplified here.

[3] = tested on: AM fungi colonizing tomato (Solanum lycopersicum L. cv. Sugar Lump) root; assay: AM fungal colonization of host plant root in plant box: tomato; format: in vivo; conditions: 4 weeks, FIG. 4b
Protocol: (§1) To confirm that the identified active compounds not only promote hyphal branching of the AM fungi but also actually lead to increases of colonization and symbiosis with diverse plants, tests were carried out using lisianthus (Eustoma grandiflorum cv. Pink Thumb), tomato (Solanum lycopersicum L. cv. Sugar Lump), and chive (Allium schoenoprasum) as host plants.
(§2) Culturing of the host plants and AM fungal colonization and treatments with the active compounds were performed according to the following procedures. […]
(§3) Colonization rates of the AM fungi were measured according to the following procedures. […]
(§4) (4) Using a light microscope having an ocular lens fitted with an ocular micrometer, the stage was moved perpendicular to the root (in the Y-axis direction), and when the crosshair of the ocular micrometer touched the root, presence or absence of AM fungal hyphae in the root within the field of view was examined. The rate of hyphal invasion, i.e. colonization rate, as a total was calculated according to the following formula. […]
(§5) The rate of arbuscule formation was calculated according to the above formula by replacing the numerator in parentheses, on the right-hand side of the equation, with “number of fields of view in which arbuscules were seen”.

[4] = tested on: AM fungi colonizing chive (Allium schoenoprasum) root; assay: AM fungal colonization of host plant root in plant box: chive; format: in vivo
Protocol: as §1, §2, §3, §4
The rate of arbuscule formation was calculated according to the above formula by replacing the numerator in parentheses, on the right-hand side of the equation, with “number of fields of view in which arbuscules were seen”. […]

[5] = tested on: AM fungi colonizing lisianthus (Eustoma grandiflorum cv. Pink Thumb) root; assay: AM fungal colonization of host plant root in plant box: lisianthus; format: in vivo; design: AM fungal colonization rates compared with positive control gibberellin (GA): dose or concentration left out as unconfirmed; conditions: for root colonization events compared to the mock treatment: 4 weeks
Protocol: as §1
Culturing of the host plants and AM fungal colonization and treatments with the active compounds were performed according to the following procedures.
(1) Plant box was assembled in 3 tiers: the top tier served as a lid having openings for ventilation, the middle tier was a box to which the culture soil (300 mL river sand) had been added, and the bottom tier was an empty box.
(2) The plant box of (1) above was sterilized by autoclaving (121° C., 20 minutes).
(3) To the culture soil of the middle box, 1000 spores of the AM fungi and 50 mL of the Hoagland hydroponic solution at a 1/10 concentration were added, and stirred with forceps. The active compounds such as GPS were added to the Hoagland hydroponic solution to treat the AM fungi and host plants.
(4) In order to prevent drying of the culture soil, 50 mL of the Hoagland hydroponic solution at a 1/10 concentration was also added to the bottom box. A twisted piece of KimWipe was placed through a hole provided at the bottom of the middle box, with the lower tip of the Kim Wipe soaked into the solution in the bottom box, and therefore the culture soil was maintained without becoming dry.
(5) Six seedlings of each host plant were planted per plant box, and cultured for 4 weeks in a culture chamber set at 24° C. and 14 hour light cycle.
(6) After completing the culturing period above, the root of each host plant was sampled and preserved in an FAA fixative solution.
Colonization rates of the AM fungi were measured according to the following procedures.
(1) The root fixed in said fixative solution was cut into 1 cm fragments and immersed in a 10% KOH aqueous solution, and heated at 90° C. for 15 minutes. […]
as §4, §5

Molecule	hyphal branch numbers compared to the negative control [1]	hyphal branching activity compared with positive control GR24 [1]	activity for promoting hyphal branching (hyphal branch number per spore) ([1]; FIG. 1)	hyphal branching (Rhizophagus clarus HR1)	further results
COC(=O)C1=CO[C@@H](O[C@@H]2O[C@H](CO)[C@@H](O)[C@H](O)[C@H]2O)[C@@H]2[C@@H](C)[C@@H](O)C[C@H]12 [Loganin]	had the activity for the AM fungi to promote hyphal branching	comparable to those of Gentiopicroside and Swertiamarin and the positive control GR24	–	–	–
CC1=C[C@H](O/C=C2/C(=O)O[C@@H]3c4ccccc4C[C@H]23)OC1=O (racemic) [GR24, rac-GR24, reference compound]	–	–	–	–	germination rate of the common broomrape seeds ([2]; 1 μM GR24, 5 days at 25° C. in the dark): ~100%; hyphal branch number per spore compared to the Mock treatment ([1]; positive control, 100 nM, 7-10 days at 25° C. in the dark, FIG. 1): significant increase; hyphal branching (Rhizophagus clarus HR1; positive control, 100 nM): significant increases
C=C[C@@H]1C2=CCOC(=O)C2=CO[C@H]1O[C@@H]1O[C@H](CO)[C@@H](O)[C@H](O)[C@H]1O [GPS, Gentiopicroside]	–	comparable to or greater than that of GR24	significantly high activities for promoting hyphal branching	significant increases	germination of the common broomrape seeds ([2]; 1 to 1000 nM GPS alone, 5 days at 25° C. in the dark): did not germinate at all; germination rates of the common broomrape seeds ([2]; GPS treatment in the concurrent presence of GR24 treatment): ~100%; GPS concentration giving maximum average colonization rate of the AM fungi [3]: 100 nM; AM fungal colonization rate ([4]; 1 nM (lowest concentration tested), Dunnett's test): statistically significant increase; GPS concentration giving maximum average colonization rate of the AM fungi ([4]; 4 weeks, FIG. 4c): 10 nM; root colonization events compared to the mock treatment ([5]; 10 nM, Dunnett's test): statistically significant increase; root colonization events compared to the mock treatment ([5]; GPS treatments, FIG. 4a): increasing trend; outside-of-root hyphae of the AM fungi in the rhizosphere ([5]; GPS treatments, FIG. 4a, left): vigorously branching; AM fungal colonization rates compared with positive control gibberellin (GA) ([5]; positive control gibberellin): overall lower
Oleuropein	increased the hyphal branch numbers significantly	lower activities compared to GR24 and Loganin	–	–	–
COC(=O)C1=CO[C@@H](O[C@@H]2O[C@H](CO)[C@@H](O)[C@H](O)[C@H]2O)[C@@H]2C(CO)=CC[C@H]12 [Geniposide]	increased the hyphal branch numbers significantly	lower activities compared to GR24 and Loganin	–	–	–
C=C[C@H]1[C@H](O[C@@H]2O[C@H](CO)[C@@H](O)[C@H](O)[C@H]2O)OC=C2C(=O)OCC[C@]21O [SWM, Swertiamarin]	–	comparable to or greater than that of GR24	significantly high activities for promoting hyphal branching	significant increases	–

Reference: patent US20260262656A1, “COMPOSITION AND METHOD FOR PROMOTING COLONIZATION OF ARBUSCULAR MYCORRHIZAL FUNGI” (National University Corporation Tottori University, priority 2022, published 2026)
